According to patent US7417156B2, “Orally active, antimalarial, anticancer, artemisinin-derived trioxane dimers” (Johns Hopkins University, priority 2002, dated 2008):

Assays:
CCRF-CEM = test: NCI 60 cell line panel screen (SRB); format: cell-based, human
TK-10 = test: NCI 60 cell line panel screen (SRB); format: cell-based, human
IGROVI = test: NCI 60 cell line panel screen (SRB); format: cell-based, human
NCI-H23 = test: NCI 60 cell line panel screen (SRB); format: cell-based, human
UACC-257 = test: NCI 60 cell line panel screen (SRB); format: cell-based, human
COLO 205 = test: NCI 60 cell line panel screen (SRB); format: cell-based, human
U251 = test: NCI 60 cell line panel screen (SRB); format: cell-based, human
KM12 = test: NCI 60 cell line panel screen (SRB); format: cell-based, human
EKVX = test: NCI 60 cell line panel screen (SRB); format: cell-based, human
SK-MEL-28 = test: NCI 60 cell line panel screen (SRB); format: cell-based, human
NCI-H522 = test: NCI 60 cell line panel screen (SRB); format: cell-based, human
HOP-92 = test: NCI 60 cell line panel screen (SRB); format: cell-based, human
NCI/ADR-RES = test: NCI 60 cell line panel screen (SRB); format: cell-based, human
BT-549 = test: NCI 60 cell line panel screen (SRB); format: cell-based, human
786-0 = test: NCI 60 cell line panel screen (SRB); format: cell-based, human
M14 = test: NCI 60 cell line panel screen (SRB); format: cell-based, human
NCI-H322M = format: cell-based
MCF7 = test: NCI 60 cell line panel screen (SRB); format: cell-based, human
RPMI-8226 = test: NCI 60 cell line panel screen (SRB); format: cell-based, human
SF-268 = test: NCI 60 cell line panel screen (SRB); format: cell-based, human
MDA-MB231/ATCC = test: NCI 60 cell line panel screen (SRB); format: cell-based, human
OVCAR-5 = test: NCI 60 cell line panel screen (SRB); format: cell-based, human
HL-60(TB) = test: NCI 60 cell line panel screen (SRB); format: cell-based, human
T-47D = test: NCI 60 cell line panel screen (SRB); format: cell-based, human
HT29 = test: NCI 60 cell line panel screen (SRB); format: cell-based, human
HS 578T = test: NCI 60 cell line panel screen (SRB); format: cell-based, human
A549/ATCC = test: NCI 60 cell line panel screen (SRB); format: cell-based, human
HCT-15 = test: NCI 60 cell line panel screen (SRB); format: cell-based, human

With CC1CCC2C(C)C(CC(COC(=O)CCC(=O)O)CC3OC4OC5(C)CCC6C(C)CCC(C3C)C46OO5)OC3OC4(C)CCC1C32OO4 (centres unmarked) [Compound 8a, bis-trioxane primary succinate monoester] the Log10LC50 (CCRF-CEM; CCRF-CEM (Leukemia), LC50: PG=−50) was >−4.30 log10M, the Log10TGI50 (CCRF-CEM; CCRF-CEM (Leukemia), TGI: PG=0) was >−4.30 log10M and the Log10GI50 (CCRF-CEM; Leukemia, CCRF-CEM) was <−8.30. The Log10GI50 (TK-10; Renal Cancer, TK-10) was −6.92, the Log10LC50 (TK-10; TK-10 (Renal Cancer), LC50: PG=−50) was >−4.30 log10M and the Log10TGI50 (TK-10; TK-10 (Renal Cancer), TGI: PG=0) was −4.52 log10M. For the same compound, the Log10LC50 (IGROVI; IGROVI (Ovarian Cancer), LC50: PG=−50) was >−4.30 log10M, the Log10TGI50 (IGROVI; IGROVI (Ovarian Cancer), TGI: PG=0) was >−4.30 log10M and the Log10GI50 (IGROVI; Ovarian Cancer, IGROVI) was −5.07. The Log10LC50 (NCI-H23; NCI-H23 (Non-Small Cell Lung Cancer), LC50: PG=−50) was >−4.30 log10M, the Log10TGI50 (NCI-H23; NCI-H23 (Non-Small Cell Lung Cancer), TGI: PG=0) was >−4.30 log10M and the Log10GI50 (NCI-H23; Non-Small Cell Lung Cancer, NCI-H23) was <−8.30. For the same compound, the Log10GI50 (UACC-257; Melanoma, UACC-257) was −5.02, the Log10LC50 (UACC-257; UACC-257 (Melanoma), LC50: PG=−50) was >−4.30 log10M and the Log10TGI50 (UACC-257; UACC-257 (Melanoma), TGI: PG=0) was >−4.30 log10M. The Log10LC50 (COLO 205; COLO 205 (Colon Cancer), LC50: PG=−50) was 4.78 log10M, the Log10TGI50 (COLO 205; COLO 205 (Colon Cancer), TGI: PG=0) was −6.29 log10M and the Log10GI50 (COLO 205; Colon Cancer, COLO 205) was <−8.30. For the same compound, the Log10GI50 (U251; CNS Cancer, U251) was −8.20, the Log10LC50 (U251; U251 (CNS Cancer), LC50: PG=−50) was >−4.30 log10M and the Log10TGI50 (U251; U251 (CNS Cancer), TGI: PG=0) was >−4.30 log10M. The Log10GI50 (KM12; Colon Cancer, KM12) was <−8.30, the Log10LC50 (KM12; KM12 (Colon Cancer), LC50: PG=−50) was −4.60 log10M and the Log10TGI50 (KM12; KM12 (Colon Cancer), TGI: PG=0) was <−8.30 log10M. The Log10LC50 (EKVX; EKVX (Non-Small Cell Lung Cancer), LC50: PG=−50) was >−4.30 log10M, the Log10TGI50 (EKVX; EKVX (Non-Small Cell Lung Cancer), TGI: PG=0) was −5.47 log10M and the Log10GI50 (EKVX; Non-Small Cell Lung Cancer, EKVX) was −6.90. For the same compound, the Log10GI50 (SK-MEL-28; Melanoma, SK-MEL-28) was −6.09, the Log10LC50 (SK-MEL-28; SK-MEL-28 (Melanoma), LC50: PG=−50) was >−4.30 log10M and the Log10TGI50 (SK-MEL-28; SK-MEL-28 (Melanoma), TGI: PG=0) was >−4.30 log10M. For the same compound, the Log10TGI50 (NCI-H522; NCI-H522 (Non-Small Cell Lung Cancer), TGI: PG=0) was >−4.30 log10M, the Log10LC50 (NCI-H522; NCI-H-522 (Non-Small Cell Lung Cancer), LC50: PG=−50) was >−4.30 log10M and the Log10GI50 (NCI-H522; Non-Small Cell Lung Cancer, NCI-H522) was −6.16. For the same compound, the Log10LC50 (HOP-92; HOP-92 (Non-Small Cell Lung Cancer), LC50: PG=−50) was >−4.30 log10M, the Log10TGI50 (HOP-92; HOP-92 (Non-Small Cell Lung Cancer), TGI: PG=0) was >−4.30 log10M and the Log10GI50 (HOP-92; Non-Small Cell Lung Cancer, HOP-92) was −6.56. The Log10GI50 (NCI/ADR-RES; Breast Cancer, NCI/ADR-RES) was −5.64, the Log10LC50 (NCI/ADR-RES; NCI/ADR-RES (Breast Cancer), LC50: PG=−50) was >−4.30 log10M and the Log10TGI50 (NCI/ADR-RES; NCI/ADR-RES (Breast Cancer), TGI: PG=0) was >−4.30 log10M. The Log10LC50 (BT-549; BT-549 (Breast Cancer), LC50: PG=−50) was >−4.30 log10M, the Log10TGI50 (BT-549; BT-549 (Breast Cancer), TGI: PG=0) was −7.39 log10M and the Log10GI50 (BT-549; Breast Cancer, BT-549) was −7.91. For the same compound, the Log10LC50 (786-0; 786-0 (Renal Cancer), LC50: PG=−50) was >−4.30 log10M, the Log10TGI50 (786-0; 786-0 (Renal Cancer), TGI: PG=0) was >−4.30 log10M and the Log10GI50 (786-0; Renal Cancer, 786-0) was −6.45. The Log10LC50 (M14; M14 (Melanoma), LC50: PG=−50) was >−4.30 log10M, the Log10TGI50 (M14; M-14 (Melanoma), TGI: PG=0) was >−4.30 log10M and the Log10GI50 (M14; Melanoma, M14) was −6.94. The Log10TGI50 (NCI-H322M; NCI-H322M (Non-Small Cell Lung Cancer), TGI: PG=0) was >−4.30 log10M, the Log10GI50 (NCI-H322M; Non-Small Cell Lung Cancer, NCI-H322M) was −5.11 and the Log10GI50 (MCF7; Breast Cancer, MCF7) was <−8.30. For the same compound, the Log10LC50 (MCF7; MCF7 (Breast Cancer), LC50: PG=−50) was >−4.30 log10M, the Log10TGI50 (MCF7; MCF7 (Breast Cancer), TGI: PG=0) was >−4.30 log10M and the Log10GI50 (RPMI-8226; Leukemia, RPMI-8226) was <−8.30. The Log10LC50 (RPMI-8226; RPMI-8226 (Leukemia), LC50: PG=−50) was >−4.30 log10M, the Log10TGI50 (RPMI-8226; RPMI-8226 (Leukemia), TGI: PG=0) was −6.19 log10M and the Log10GI50 (SF-268; CNS Cancer, SF-268) was −7.11. The Log10LC50 (SF-268; SF-268 (CNS Cancer), LC50: PG=−50) was >−4.30 log10M, the Log10TGI50 (SF-268; SF-268 (CNS Cancer), TGI: PG=0) was >−4.30 log10M and the Log10GI50 (MDA-MB231/ATCC; Breast Cancer, MDA-MB231/ATCC) was −7.19. For the same compound, the Log10LC50 (MDA-MB231/ATCC; MDA-MB231/ATCC (Breast Cancer), LC50: PG=−50) was >−4.30 log10M, the Log10TGI50 (MDA-MB231/ATCC; MDA-MB231/ATCC (Breast Cancer), TGI: PG=0) was −6.35 log10M and the Log10LC50 (OVCAR-5; OVCAR-5 (Ovarian Cancer), LC50: PG=−50) was >−4.30 log10M. The Log10TGI50 (OVCAR-5; OVCAR-5 (Ovarian Cancer), TGI: PG=0) was −6.62 log10M, the Log10GI50 (OVCAR-5; Ovarian Cancer, OVCAR-5) was <−8.30 and the Log10LC50 (HL-60(TB); HL-60(TB) (Leukemia), LC50: PG=−50) was >−4.30 log10M. The Log10TGI50 (HL-60(TB); HL-60(TB) (Leukemia), TGI: PG=0) was −7.61 log10M, the Log10GI50 (HL-60(TB); Leukemia, HL-60(TB)) was <−8.30 and the Log10GI50 (T-47D; Breast Cancer, T-47D) was <−8.30. For the same compound, the Log10LC50 (T-47D; T-47D (Breast Cancer), LC50: PG=−50) was >−4.30 log10M, the Log10TGI50 (T-47D; T-47D (Breast Cancer), TGI: PG=0) was −4.77 log10M and the Log10GI50 (HT29; Colon Cancer, HT29) was <−8.30. The Log10LC50 (HT29; HT29 (Colon Cancer), LC50: PG=−50) was >−4.30 log10M, the Log10TGI50 (HT29; HT29 (Colon Cancer), TGI: PG=0) was >−4.30 log10M and the Log10GI50 (HS 578T; Breast Cancer, HS 578T) was >−4.30. For the same compound, the Log10LC50 (HS 578T; HS 578T (Breast Cancer), LC50: PG=−50) was >−4.30 log10M, the Log10TGI50 (HS 578T; HS 578T (Breast Cancer), TGI: PG=0) was >−4.30 log10M and the Log10LC50 (A549/ATCC; A549/ATCC (Non-Small Cell Lung Cancer), LC50: PG=−50) was >−4.30 log10M. The Log10TGI50 (A549/ATCC; A549/ATCC (Non-Small Cell Lung Cancer), TGI: PG=0) was >−4.30 log10M, the Log10GI50 (A549/ATCC; Non-Small Cell Lung Cancer, A549/ATCC) was −4.42 and the Log10GI50 (HCT-15; Colon Cancer, HCT-15) was <−8.30. For the same compound, the Log10LC50 (HCT-15; HCT-15 (Colon Cancer), LC50: PG=−50) was >−4.30 log10M and the Log10TGI50 (HCT-15; HCT-15 (Colon Cancer), TGI: PG=0) was −5.61 log10M.
